# T1: AtuGSTH1-1 (Agrobacterium fabrum, UniProt A9CFJ9)
# T1 construct: gene Atu3701; homodimer by crystal symmetry
# T1 sequence (A9CFJ9 1-230): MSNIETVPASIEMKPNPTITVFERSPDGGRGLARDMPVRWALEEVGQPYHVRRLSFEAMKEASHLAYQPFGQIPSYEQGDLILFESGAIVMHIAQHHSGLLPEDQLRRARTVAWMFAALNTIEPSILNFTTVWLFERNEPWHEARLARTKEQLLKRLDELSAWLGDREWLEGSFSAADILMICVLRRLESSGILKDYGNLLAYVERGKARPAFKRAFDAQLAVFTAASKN
# Legend:
# AtuGSTH1-1 [1] = target: T1, AtuGSTH1-1; test: steady-state kinetics, GST assay; format: biochemical; settings: co-substrate GSH; 0.1 M potassium phosphate pH 6.5, 37 °C; read-out: Κm
# Description: steady-state kinetics, GST assay on AtuGSTH1-1
# AtuGSTH1-1 [2] = target: T2, AtuGSTH1-1 (Agrobacterium fabrum, UniProt A9CFJ9, S25A); settings: read-out: Km, (mM) (CDNB) / Km, (mM) (CuOOH); co-substrate GSH
# T2 construct: gene Atu3701
# AtuGSTH1-1 [3] = target: T3, AtuGSTH1-1 (Agrobacterium fabrum, UniProt A9CFJ9, R187A); settings: read-out: Km, (mM) (CDNB) / Km, (mM) (CuOOH); co-substrate GSH
# T3 construct: gene Atu3701
# AtuGSTH1-1 [4] = target: T4, AtuGSTH1-1 (Agrobacterium fabrum, UniProt A9CFJ9, F22A); settings: read-out: Km, (mM) (CDNB) / Km, (mM) (CuOOH); co-substrate GSH
# T4 construct: gene Atu3701
# AtuGSTH1-1 [5] = target: T1, AtuGSTH1-1; test: steady-state kinetics, thioltransferase assay; format: biochemical; settings: co-substrate GSH; 0.1 M potassium phosphate pH 6.5, 37 °C; read-out: Κm
# Description: steady-state kinetics, thioltransferase assay on AtuGSTH1-1
# [6] = substrate: CC(C)(C)OO; test: steady-state kinetics, GSH-dependent peroxidase assay; format: biochemical, Agrobacterium fabrum; settings: co-substrate GSH, 0.1 M potassium phosphate pH 6.5, 37 °C
# [7] = substrate: CC(C)(OO)c1ccccc1; test: as above; format: biochemical, Agrobacterium fabrum; settings: co-substrate GSH, 0.1 M potassium phosphate pH 6.5, 37 °C
molecule,measurement,setting,value
"O=[N+]([O-])c1ccc(Cl)c([N+](=O)[O-])c1 [CDNB, 1-chloro-2,4-dinitrobenzene]",Km,AtuGSTH1-1 [1],1500 ± 90 µM
same,Km,AtuGSTH1-1 [2],1.9 ± 0.18 mM
same,Km,AtuGSTH1-1 [3],7.1 ± 0.76 mM
same,Km,AtuGSTH1-1 [4],3.2 ± 0.39 mM
OCCSSCCO [HEDS],Km,AtuGSTH1-1 [5],4100 ± 120 µM
"AtuGSTH1-1 (Agrobacterium fabrum str. C58) (protein, homodimer by crystal symmetry) MSNIETVPASIEMKPNPTITVFERSPDGGRGLARDMPVRWALEEVGQPYHVRRLSFEAMKEASHLAYQPFGQIPSYEQGDLILFESGAIVMHIAQHHSGLLPEDQLRRARTVAWMFAALNTIEPSILNFTTVWLFERNEPWHEARLARTKEQLLKRLDELSAWLGDREWLEGSFSAADILMICVLRRLESSGILKDYGNLLAYVERGKARPAFKRAFDAQLAVFTAASKN",Km,[6],1600 ± 70 µM
same,kcat,[6],2.495 ± 0.0868 s⁻¹
same,Km,[7],2700 ± 210 µM
same,kcat,[7],5.657 ± 0.101 s⁻¹

# Source: paper PMC3319563 (PLoS ONE, 2012)
